In US8614236B2 (University of Washington, priority 2006, dated 2013):
“Also recorded” adds a separate entry of the source. Bridge positions count the residues as written; N and C are the ends. Ends that are not written are not given here.

Legend:
PASMCs [1] = test: Changes in membrane potential (Em) in PASMCs, DiBAC4(3) fluorescence; assay type: cell-based, rat; conditions: agent alone; for increase in DiBAC4(3) fluorescence: KCl 60 mM, ET-1 10^−8 M
Protocol: (§1) The method for obtaining single PASMCs has been described previously in Shimoda L. A., et al., Am J Physiol 274: 842-853 (1998), which is hereby incorporated by reference in its entirety. Intrapulmonary arteries (200-600 μm o.d.) were isolated from male Wistar rats (250-350 g) and cleaned of connective tissue. After the lumen was gently rubbed with a cotton swab to remove the endothelial cells, the arteries were allowed to recover for 30 minutes in cold (4° C.) HBSS containing (in mM): 130 NaCl, 5 KCl, 1.2 MgCl2, 1.5 CaCl2, 10 N-[2-hydroxyethyl]piperazine-N′-[2-ethanesulfonic acid] (HEPES) and 10 glucose, with pH adjusted to 7.2 with 5 M NaOH, followed by 20 minutes in reduced-Ca^2+ (20 μM CaCl2) HBSS at room temperature. The tissue was enzymatically digested in reduced-Ca^2+ HBSS containing collagenase (type I; 1750 U/ml), papain (9.5 U/ml), bovine serum albumin (2 mg/ml) and dithiothreitol (1 mM) at 37° C. for 20 minutes. Following digestion, single smooth muscle cells were dispersed by gentle trituration with a wide-bore transfer pipette in Ca^2+-free HBSS and the cell suspension was placed on 25 mm glass cover slips. PASMCs were transiently cultured in Ham's-F-12 media supplemented with 0.5% fetal bovine serum and 1% penicillin/streptomycin for 24-48 hrs. before study.
Changes in membrane potential were measured using the fluorescence dye, DiBAC4(3), which was excited at 490 nm and detected at 510 nm. Cells were loaded by continuous perfusion with Kreb's solution containing 500 nM DiBAC4(3) and were perfused for at least 15 minutes before beginning measurements to insure stable uptake of dye. Baseline DiBAC4(3) fluorescence was monitored for 5 minutes with control Kreb's, followed by 10 minutes with Kreb's in the presence or absence of AZ (100 μM). At the end of this period, cells were challenged with KCl (60 mM) or endothelin-1 (ET-1) (10^−8 M). Since DiBAC4(3) is a single wavelength dye, any change in the concentration of the dye in the perfusion medium (i.e., differing concentrations between perfusion reservoirs) could result in a change in fluorescence that is not due to a change in membrane potential. To minimize the possibility of this type of error, all experiments were performed using inflow from a single reservoir into which AZ, KCl or ET-1 were dissolved directly.
AZ has recently been proposed to alter the activation of Ca^2+-activated K^+ channels, causing hyperpolarization. See Pickkers P., et al., Br J Pharmacol 132: 443-450 (2001); Tricarico D., et al., Ann Neurol 48: 304-312 (2000); and Tricarico D., et al., Faseb J 18: 760-761 (2004), which are hereby incorporated by reference in their entirety. Since depolarization is believed to contribute to the hypoxia-induced increase in [Ca^2+]i, AZ-induced hyperpolarization could prevent activation of voltage-gated Ca^2+ channels and an increase in [Ca^2+]i in response to hypoxia. In order to test this possibility, the Em-sensitive fluorescent dye, DiBAC4(3) was used. […] Baseline fluorescence was relatively stable over time, decreasing by 4.11±0.4% over 10 minutes (n=90 cells).

PASMCs [2] = test: KCl-induced Ca2+ responses in PASMCs; assay type: cell-based, rat; conditions: 100 μM
Protocol: as §1, with “Intrapulmonary” for “The method for obtaining single PASMCs has been described previously in Shimoda L. A., et al., Am J Physiol 274: 842-853 (1998), which is hereby incorporated by reference in its entirety. Intrapulmonary”, “The tissue was enzymatically digested in reduced-Ca^2+ HBSS containing collagenase (type I; 1750 U/ml), papain (9.5 U/ml), bovine serum albumin (2 mg/ml) and dithiothreitol (1 mM) at 37° C. for 20 minutes.” left out
(§2) Acute hypoxia increases intracellular [Ca^2+] in pulmonary arterial smooth muscle by enhancing capacitative Ca^2+ entry. […] Ratiometric measurement of fluorescence from the dye was performed on a workstation (Intracellular Imaging Inc, Cincinnati, Ohio) consisting of a Nikon TSE 100 Ellipse inverted microscope with epi-fluorescence attachments. The light beam from a xenon arc lamp was filtered at 340 and 380 nm, and focused onto the PASMCS under examination via a 20× fluorescence objective (Super Fluor 20, Nikon). Light emitted from the cell at 510 nm was returned through the objective and detected by a cooled CCD imaging camera. An electronic shutter (Sutter Instruments) was used to minimize photobleaching of dye. Protocols were executed and data collected on-line with InCyte software (Intracellular Imaging Inc). [Ca^2+]i was estimated from in vitro calibration solutions.

PASMCs [3] = test: Hypoxia-induced increase in [Ca2+]i in PASMCs (4% O2); assay type: cell-based, rat
Protocol: as §1, with “Intrapulmonary” for “The method for obtaining single PASMCs has been described previously in Shimoda L. A., et al., Am J Physiol 274: 842-853 (1998), which is hereby incorporated by reference in its entirety. Intrapulmonary”, “The tissue was enzymatically digested in reduced-Ca^2+ HBSS containing collagenase (type I; 1750 U/ml), papain (9.5 U/ml), bovine serum albumin (2 mg/ml) and dithiothreitol (1 mM) at 37° C. for 20 minutes.” left out
as §2

PASMCs [4] = test: Intracellular pH (pHi) in PASMCs (BCECF-AM); assay type: cell-based, rat
Protocol: as §1
pHi within PASMCs was monitored using the cell permeant pH sensitive dye 2′,7′-bis(carboxyethyl)-5(6)-carboxyflourescein (BCECF-AM). Cells were incubated with BCECF-AM for 60 min at 37° C. under an atmosphere of 21% O2-5% CO2. Cells were then washed with Kreb's solution for 15 min at 37° C. to remove extracellular dye and allow complete de-esterification of cytosolic dye. Cells were excited with light at 490 and 440 nm and light emitted from the cells was detected at 530 nm. The ratio of 490 to 440 nm emission was calculated and converted into pH values by performing a calibration curve after each experiment. PASMCs were subjected to a high K^+ buffer containing 10 μM nigericin, which allowed the cell to adopt the pH of the high K^+ buffer. Two high K^+/nigericin buffers were used to set pH to 6.5 or 7.5, pHi was estimated from in situ calibration after each experiment. Cells were perfused with a solution containing (in mM): 105 KCl, 1 MgCl2, 1.5 CaCl2, 10 glucose, 20 HEPES-Tris and 0.01 nigericin to allow pHi to equilibrate to external pH as in Quinn D. A., et al., Am J Respir Cell Mol Biol 5: 586-591 (1991), which is hereby incorporated by reference in its entirety. A two point calibration was created from fluorescence measured as pHi was adjusted with KOH from 6.5 to 7.5. Intracellular H^+ ion concentration ([H^+]i) was determined from pHi using the formula: pHi=−log ([H^+]i).

carbonic anhydrase = test: Carbonic anhydrase inhibition; assay type: biochemical
Source text: Benzolamide (BZ) was obtained from Dr. Thomas H. Maren, University of Florida Department of Pharmacology.

PASMCs [5] = test: Basal intracellular Ca2+ concentration in PASMCs (Fura-2); assay type: cell-based, rat
Protocol: as §1, with “Intrapulmonary” for “The method for obtaining single PASMCs has been described previously in Shimoda L. A., et al., Am J Physiol 274: 842-853 (1998), which is hereby incorporated by reference in its entirety. Intrapulmonary”, “The tissue was enzymatically digested in reduced-Ca^2+ HBSS containing collagenase (type I; 1750 U/ml), papain (9.5 U/ml), bovine serum albumin (2 mg/ml) and dithiothreitol (1 mM) at 37° C. for 20 minutes.” left out
as §2

## CC(N/C(=N\C#N)Nc1ccncc1)C(C)(C)C (stereo not drawn) [pinacidil]
PASMCs [1]; 100 μM
  decrease in DiBAC4(3) fluorescence: 19.76±3.3%

## [Cl-].[K+] [KCl]
PASMCs [1]
  increase in DiBAC4(3) fluorescence: 61.58±12.8%

## endothelin-1 (CSCSSLMDKECVYFCHLDIIW; disulfide 1-15, 3-11; ends not checked; UniProt P05305 53-73, looked up) [ET-1]
PASMCs [1]
  increase in DiBAC4(3) fluorescence: 75.6±13.4%

## CNS(=O)(=O)c1nnc(NC(C)=O)s1 [N-Meth-AZ]
PASMCs [2]
  effect on KCl-induced increase in [Ca^2+]i: similar
PASMCs [3]; 100 μM, control 141.1±32.2 nM
  increase in [Ca^2+]i induced by hypoxia: 33.2 ± 17.4 nM
PASMCs [3]; 10-100 μM
  effect on hypoxia-induced increase in [Ca^2+]i: markedly reduced; also recorded: prevented
PASMCs [4]; 100 μM
  basal pHi, Treatment: 7.12±0.01
  effect on basal pHi: no significant effect; also recorded: minimal effect
PASMCs [4]; before the compound
  basal pHi, Baseline: 7.13±0.02
Carbonic anhydrase
  CA inhibiting action: no CA inhibiting action
PASMCs [5]; 100 μM, after 10 min of perfusion
  basal [Ca^2+]i, Treatment: 200.9 ± 11.3 nM
PASMCs [5]; before perfusion with the compound
  basal [Ca^2+]i, Baseline: 193.4 ± 11.0 nM
